What all share (assay): Large panel kinase profiling
What all share (assay type): biochemical
Common to all, as to details: 1 μM test article, 1 mM ATP

The target in one test is EPHA7 (Homo sapiens, UniProt Q15375). A digest of the protocol:
(§1)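 Single-point profiling at 1 μM test article used 1 mM ATP. Phosphorylation was tracked by sensor fluorescence increase over time at 30° C., with readings each minute at excitation 360 nm and emission 485 nm.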

For the next test, the target named is FGR (Homo sapiens, UniProt P09769). In short, it runs like this:
as §1

Another test has as its target T1, FLT4 (Homo sapiens, UniProt P35916).
T1 construct: AssayQuant Technologies, Inc. (service provider)
A digest of the protocol: as §1

A further test concerns the target T2, FRK (Homo sapiens, UniProt P42685).
T2 construct: AssayQuant Technologies, Inc. (service provider)
A digest of the protocol: as §1

The next test concerns the target T3, GRK5 (Homo sapiens, UniProt P34947).
T3 construct: AssayQuant Technologies, Inc. (service provider)
A digest of the protocol: as §1

A further test deals with T4, LATS1 (Homo sapiens, UniProt O95835).
T4 sequence (O95835 1-1130): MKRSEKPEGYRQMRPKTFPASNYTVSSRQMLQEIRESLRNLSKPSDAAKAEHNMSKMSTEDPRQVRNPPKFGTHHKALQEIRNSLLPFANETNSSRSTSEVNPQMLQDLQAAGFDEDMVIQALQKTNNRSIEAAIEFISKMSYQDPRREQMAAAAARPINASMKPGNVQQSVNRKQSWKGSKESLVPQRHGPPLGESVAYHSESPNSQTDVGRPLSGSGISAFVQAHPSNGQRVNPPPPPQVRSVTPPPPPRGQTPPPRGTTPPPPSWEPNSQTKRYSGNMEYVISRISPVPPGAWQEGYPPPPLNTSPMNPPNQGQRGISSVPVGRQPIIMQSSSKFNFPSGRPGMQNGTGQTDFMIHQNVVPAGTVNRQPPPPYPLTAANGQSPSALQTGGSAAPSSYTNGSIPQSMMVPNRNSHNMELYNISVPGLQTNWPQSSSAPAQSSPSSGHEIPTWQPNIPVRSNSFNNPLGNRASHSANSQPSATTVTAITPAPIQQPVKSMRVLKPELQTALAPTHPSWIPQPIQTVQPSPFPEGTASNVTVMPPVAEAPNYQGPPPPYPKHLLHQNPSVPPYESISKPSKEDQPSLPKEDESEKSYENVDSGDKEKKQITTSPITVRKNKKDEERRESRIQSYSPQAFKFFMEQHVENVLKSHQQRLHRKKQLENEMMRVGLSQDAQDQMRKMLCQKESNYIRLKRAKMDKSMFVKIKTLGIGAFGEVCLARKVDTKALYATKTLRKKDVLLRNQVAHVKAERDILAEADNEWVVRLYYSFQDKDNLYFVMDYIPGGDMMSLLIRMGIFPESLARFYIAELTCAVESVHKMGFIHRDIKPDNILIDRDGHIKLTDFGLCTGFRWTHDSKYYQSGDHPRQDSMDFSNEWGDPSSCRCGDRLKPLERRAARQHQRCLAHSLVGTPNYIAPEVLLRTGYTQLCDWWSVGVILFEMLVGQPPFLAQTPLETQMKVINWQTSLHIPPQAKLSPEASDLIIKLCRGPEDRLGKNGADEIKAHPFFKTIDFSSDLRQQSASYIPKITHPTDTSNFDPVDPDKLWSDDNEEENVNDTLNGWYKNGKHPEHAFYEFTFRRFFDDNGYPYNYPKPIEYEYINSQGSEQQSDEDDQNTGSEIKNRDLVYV
In short, it runs like this:
as §1

The target of another test is T5, MAP3K7 (Homo sapiens, UniProt O43318).
T5 construct: AssayQuant Technologies, Inc. (service provider)
T5 sequence (O43318 1-303 limits assumed): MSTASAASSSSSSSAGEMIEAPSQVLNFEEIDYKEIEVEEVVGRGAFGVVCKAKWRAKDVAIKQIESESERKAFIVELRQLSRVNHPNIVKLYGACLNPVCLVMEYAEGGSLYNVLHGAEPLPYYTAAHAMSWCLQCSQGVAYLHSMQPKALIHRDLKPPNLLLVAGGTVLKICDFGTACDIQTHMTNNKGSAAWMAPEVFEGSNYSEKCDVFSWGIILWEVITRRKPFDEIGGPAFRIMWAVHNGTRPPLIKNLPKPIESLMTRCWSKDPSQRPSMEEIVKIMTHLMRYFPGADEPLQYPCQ
In short, it runs like this: as §1

The next test has as its target T6, NEK7 (Homo sapiens, UniProt Q8TDX7).
T6 construct: AssayQuant Technologies, Inc. (assay service)
In short, it runs like this: as §1

Another test deals with NTRK3/TRKC (Homo sapiens, UniProt Q16288). A digest of the protocol: as §1
The target in a further test is PRKACA (Homo sapiens, UniProt P17612). A digest of the protocol: as §1
The target of a further test is RET (Homo sapiens, UniProt P07949). In short, it runs like this: as §1
A further test has as its target ROCK1 (Homo sapiens, UniProt Q13464). In short, it runs like this: as §1
A further test concerns the target T7, SGK2 (Homo sapiens, UniProt Q9HBY8).
T7 construct: AssayQuant Technologies, Inc. (contract assay)
T7 sequence (Q9HBY8 1-367): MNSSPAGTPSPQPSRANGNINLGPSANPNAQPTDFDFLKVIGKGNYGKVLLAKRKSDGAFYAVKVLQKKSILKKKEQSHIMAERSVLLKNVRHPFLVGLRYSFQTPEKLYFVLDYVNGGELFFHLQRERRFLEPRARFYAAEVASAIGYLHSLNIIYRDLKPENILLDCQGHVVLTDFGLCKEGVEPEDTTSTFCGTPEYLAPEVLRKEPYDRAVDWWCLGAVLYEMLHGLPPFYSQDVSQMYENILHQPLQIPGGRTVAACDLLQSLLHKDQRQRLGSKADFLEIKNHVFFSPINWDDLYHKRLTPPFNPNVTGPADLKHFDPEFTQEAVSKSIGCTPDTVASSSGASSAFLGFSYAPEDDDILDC
A digest of the protocol: as §1

T1 sequence (P35916 25-1363, species assumed): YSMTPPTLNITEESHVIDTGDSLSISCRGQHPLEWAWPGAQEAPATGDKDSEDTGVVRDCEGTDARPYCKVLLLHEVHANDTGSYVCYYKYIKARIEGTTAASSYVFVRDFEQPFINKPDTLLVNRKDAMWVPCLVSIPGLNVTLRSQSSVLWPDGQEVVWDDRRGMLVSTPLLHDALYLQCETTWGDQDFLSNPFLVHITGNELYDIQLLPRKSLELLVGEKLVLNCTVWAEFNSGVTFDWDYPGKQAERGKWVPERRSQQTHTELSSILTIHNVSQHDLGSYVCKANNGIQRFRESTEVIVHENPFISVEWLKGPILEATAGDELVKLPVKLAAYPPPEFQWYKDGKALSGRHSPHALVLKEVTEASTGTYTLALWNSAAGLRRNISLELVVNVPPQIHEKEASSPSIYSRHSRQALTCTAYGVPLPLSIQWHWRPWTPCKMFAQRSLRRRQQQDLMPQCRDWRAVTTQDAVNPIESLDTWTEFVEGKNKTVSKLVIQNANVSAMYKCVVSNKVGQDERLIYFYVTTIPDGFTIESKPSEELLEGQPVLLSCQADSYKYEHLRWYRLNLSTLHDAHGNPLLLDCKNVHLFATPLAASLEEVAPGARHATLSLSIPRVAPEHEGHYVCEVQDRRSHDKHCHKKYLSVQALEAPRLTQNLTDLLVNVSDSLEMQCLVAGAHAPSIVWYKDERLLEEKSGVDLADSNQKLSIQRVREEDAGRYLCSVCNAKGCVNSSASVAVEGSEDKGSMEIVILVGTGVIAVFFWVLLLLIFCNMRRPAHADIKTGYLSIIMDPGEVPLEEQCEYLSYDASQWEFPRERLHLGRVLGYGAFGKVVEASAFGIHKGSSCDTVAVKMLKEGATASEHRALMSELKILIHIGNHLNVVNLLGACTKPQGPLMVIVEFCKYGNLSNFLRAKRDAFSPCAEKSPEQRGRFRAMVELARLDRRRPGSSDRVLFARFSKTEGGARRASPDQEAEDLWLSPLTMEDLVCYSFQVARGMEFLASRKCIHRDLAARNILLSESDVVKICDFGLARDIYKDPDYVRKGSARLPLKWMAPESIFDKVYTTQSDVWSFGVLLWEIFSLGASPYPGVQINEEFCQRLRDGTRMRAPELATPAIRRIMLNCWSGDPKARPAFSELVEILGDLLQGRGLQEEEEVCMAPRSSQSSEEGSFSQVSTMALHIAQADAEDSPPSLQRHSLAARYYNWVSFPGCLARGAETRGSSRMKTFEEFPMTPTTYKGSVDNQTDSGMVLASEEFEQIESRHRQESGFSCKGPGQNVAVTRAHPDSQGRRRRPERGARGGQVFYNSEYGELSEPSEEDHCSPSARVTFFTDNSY
ROCK1, sequence (Q13464 whole entry, species assumed): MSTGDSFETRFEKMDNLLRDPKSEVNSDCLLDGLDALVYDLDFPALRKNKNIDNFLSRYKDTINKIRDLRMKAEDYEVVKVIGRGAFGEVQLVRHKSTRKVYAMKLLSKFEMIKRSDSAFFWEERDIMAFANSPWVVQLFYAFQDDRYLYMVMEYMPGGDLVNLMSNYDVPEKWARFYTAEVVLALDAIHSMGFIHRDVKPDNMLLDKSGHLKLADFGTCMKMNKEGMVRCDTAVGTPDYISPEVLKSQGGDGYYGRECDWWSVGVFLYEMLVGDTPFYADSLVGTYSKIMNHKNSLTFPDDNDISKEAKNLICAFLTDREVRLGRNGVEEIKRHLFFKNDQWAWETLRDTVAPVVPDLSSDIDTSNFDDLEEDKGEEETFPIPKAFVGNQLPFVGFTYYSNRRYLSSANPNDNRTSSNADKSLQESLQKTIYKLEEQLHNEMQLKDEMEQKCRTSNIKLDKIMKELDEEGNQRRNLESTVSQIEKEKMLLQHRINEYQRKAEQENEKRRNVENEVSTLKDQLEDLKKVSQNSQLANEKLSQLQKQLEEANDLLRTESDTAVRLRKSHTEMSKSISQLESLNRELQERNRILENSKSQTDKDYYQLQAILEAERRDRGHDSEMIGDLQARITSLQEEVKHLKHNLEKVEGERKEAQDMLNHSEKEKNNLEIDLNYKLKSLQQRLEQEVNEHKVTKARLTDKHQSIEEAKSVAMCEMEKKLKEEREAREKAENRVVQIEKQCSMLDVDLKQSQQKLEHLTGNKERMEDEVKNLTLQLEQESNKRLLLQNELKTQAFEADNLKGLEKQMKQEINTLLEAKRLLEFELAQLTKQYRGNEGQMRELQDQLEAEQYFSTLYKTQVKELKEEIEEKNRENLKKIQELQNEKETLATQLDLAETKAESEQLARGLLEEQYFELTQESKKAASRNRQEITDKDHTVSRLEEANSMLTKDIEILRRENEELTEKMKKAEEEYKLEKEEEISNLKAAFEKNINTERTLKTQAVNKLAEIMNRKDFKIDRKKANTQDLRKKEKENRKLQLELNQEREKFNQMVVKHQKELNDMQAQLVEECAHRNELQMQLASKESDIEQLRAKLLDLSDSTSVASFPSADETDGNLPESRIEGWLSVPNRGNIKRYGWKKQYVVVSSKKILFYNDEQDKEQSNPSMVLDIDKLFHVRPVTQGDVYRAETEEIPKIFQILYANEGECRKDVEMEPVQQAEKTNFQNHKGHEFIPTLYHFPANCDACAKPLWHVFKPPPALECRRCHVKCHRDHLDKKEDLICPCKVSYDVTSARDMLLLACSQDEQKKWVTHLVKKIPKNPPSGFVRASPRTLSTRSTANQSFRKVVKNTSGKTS
FGR, sequence (P09769 whole entry, species assumed): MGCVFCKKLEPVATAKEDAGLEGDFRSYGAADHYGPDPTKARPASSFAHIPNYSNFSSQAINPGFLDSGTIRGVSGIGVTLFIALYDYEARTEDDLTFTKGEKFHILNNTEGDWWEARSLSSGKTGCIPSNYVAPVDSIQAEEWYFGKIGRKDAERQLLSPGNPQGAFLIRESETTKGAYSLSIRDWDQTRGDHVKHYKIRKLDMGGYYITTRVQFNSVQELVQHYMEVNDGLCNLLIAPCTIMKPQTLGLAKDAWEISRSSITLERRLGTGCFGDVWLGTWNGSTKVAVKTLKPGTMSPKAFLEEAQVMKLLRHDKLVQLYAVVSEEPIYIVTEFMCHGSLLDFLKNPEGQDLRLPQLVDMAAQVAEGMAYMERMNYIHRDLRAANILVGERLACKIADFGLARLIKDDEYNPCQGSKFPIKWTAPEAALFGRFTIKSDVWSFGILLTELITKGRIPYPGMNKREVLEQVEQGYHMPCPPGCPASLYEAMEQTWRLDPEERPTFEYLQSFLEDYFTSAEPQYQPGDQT
EPHA7, sequence (Q15375 28-998, species assumed): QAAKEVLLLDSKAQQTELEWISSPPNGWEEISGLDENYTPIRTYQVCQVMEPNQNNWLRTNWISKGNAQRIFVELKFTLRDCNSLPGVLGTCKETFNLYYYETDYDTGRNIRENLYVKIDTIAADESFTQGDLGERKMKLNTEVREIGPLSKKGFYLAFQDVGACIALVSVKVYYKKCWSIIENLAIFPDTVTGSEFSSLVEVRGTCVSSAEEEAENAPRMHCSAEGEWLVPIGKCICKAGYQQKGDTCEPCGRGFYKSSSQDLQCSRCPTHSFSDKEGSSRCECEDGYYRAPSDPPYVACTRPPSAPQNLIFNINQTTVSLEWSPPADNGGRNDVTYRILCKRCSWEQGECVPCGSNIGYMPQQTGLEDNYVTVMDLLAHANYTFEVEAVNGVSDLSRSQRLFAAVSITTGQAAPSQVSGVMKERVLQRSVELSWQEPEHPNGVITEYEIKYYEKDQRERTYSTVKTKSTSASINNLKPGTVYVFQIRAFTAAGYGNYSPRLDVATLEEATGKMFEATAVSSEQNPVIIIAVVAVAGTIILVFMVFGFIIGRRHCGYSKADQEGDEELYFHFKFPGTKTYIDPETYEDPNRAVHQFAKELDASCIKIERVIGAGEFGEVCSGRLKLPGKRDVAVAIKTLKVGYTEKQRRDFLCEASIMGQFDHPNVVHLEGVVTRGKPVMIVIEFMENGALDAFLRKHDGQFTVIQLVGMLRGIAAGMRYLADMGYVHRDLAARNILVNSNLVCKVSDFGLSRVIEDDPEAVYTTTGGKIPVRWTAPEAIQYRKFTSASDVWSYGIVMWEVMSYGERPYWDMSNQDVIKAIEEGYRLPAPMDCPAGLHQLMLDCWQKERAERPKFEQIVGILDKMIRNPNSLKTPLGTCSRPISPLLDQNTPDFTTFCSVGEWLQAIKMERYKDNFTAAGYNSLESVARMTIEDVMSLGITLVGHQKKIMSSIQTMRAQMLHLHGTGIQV
NTRK3/TRKC, sequence (Q16288 32-839): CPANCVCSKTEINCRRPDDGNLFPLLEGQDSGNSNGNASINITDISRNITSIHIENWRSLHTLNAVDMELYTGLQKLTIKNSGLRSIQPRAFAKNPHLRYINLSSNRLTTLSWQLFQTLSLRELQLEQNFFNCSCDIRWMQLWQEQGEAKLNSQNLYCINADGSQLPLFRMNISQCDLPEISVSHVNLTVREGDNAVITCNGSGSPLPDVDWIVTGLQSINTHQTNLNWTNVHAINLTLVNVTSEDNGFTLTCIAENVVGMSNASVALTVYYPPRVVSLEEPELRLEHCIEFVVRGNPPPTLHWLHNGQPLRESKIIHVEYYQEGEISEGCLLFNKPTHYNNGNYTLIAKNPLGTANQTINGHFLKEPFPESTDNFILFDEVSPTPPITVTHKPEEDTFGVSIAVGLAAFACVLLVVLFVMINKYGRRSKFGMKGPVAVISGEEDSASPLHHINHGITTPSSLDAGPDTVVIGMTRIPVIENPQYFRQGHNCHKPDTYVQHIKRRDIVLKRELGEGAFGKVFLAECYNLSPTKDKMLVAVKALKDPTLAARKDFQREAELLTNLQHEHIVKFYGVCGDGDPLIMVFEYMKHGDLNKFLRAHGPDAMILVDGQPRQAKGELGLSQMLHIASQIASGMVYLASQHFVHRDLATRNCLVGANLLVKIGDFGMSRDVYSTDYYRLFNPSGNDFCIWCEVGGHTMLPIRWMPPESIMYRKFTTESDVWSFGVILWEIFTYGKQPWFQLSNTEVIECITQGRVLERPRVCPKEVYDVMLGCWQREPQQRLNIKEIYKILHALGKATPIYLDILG

Consider `C=CC(=O)N1CCCC(c2c(F)cc(C(N)=O)c3[nH]c4c(c23)CCCCC4)C1` (single isomer, unassigned) [Compound 5-6], for which the inhibition at 1 µM on EPHA7 is -0.1%; against FGR, 17.1%; on FLT4, 19.7%; at FRK it was 4.2%; on GRK5, -8.8%; at LATS1 it was -24.7%. The inhibition at 1 µM against MAP3K7 is -19.6%; against NEK7, 14.6%; against NTRK3/TRKC, -25.7%; against PRKACA, 11.4%; at RET, -24%; on ROCK1, 3.5%. The inhibition at 1 µM against SGK2 is -46.7%.
With `C=CC(=O)N1CCC[C@@H](c2c(F)cc(C(N)=O)c3[nH]c4c(c23)CC2(CC4)CC2)C1` [Compound 6-2, (S)-5-(1-acryloylpiperidin-3-yl)-6-fluoro-1,2,4,9-tetrahydrospiro[carbazole-3,1′-cyclopropane]-8-carboxamide], the inhibition at 1 µM against EPHA7 is 5.1%; at FGR, -25.9%; against FLT4 it was 20.4%; on FRK it was -2.8%; at GRK5, -114%; against LATS1, 10.1%. Besides, the inhibition at 1 µM at MAP3K7 stood at 10%; at NEK7, 13.8%; against NTRK3/TRKC, 5.7%; against PRKACA it was 12.2%; against RET, 23%; against ROCK1, 2.5%. For the same compound, the inhibition at 1 µM against SGK2 is -26.2%.
Take `C=CC(=O)N1CCC[C@@H](c2c(F)cc(C(N)=O)c3[nH]c4c(c23)CCC4)C1` [Compound 10-2, (S)-8-(1-acryloylpiperidin-3-yl)-7-fluoro-1,2,3,4-tetrahydrocyclo-penta[b]indole-5-carboxamide]: the inhibition at 1 µM on EPHA7 was -4.7%; at FGR it was 3.6%; on FLT4 it was 1.8%; at FRK, -4.1%; on GRK5, -2.2%; against LATS1 it was 22.9%. Also, the inhibition at 1 µM against MAP3K7 was 13.2%; at NEK7 it was -22.6%; at NTRK3/TRKC, 2.9%; against PRKACA, 1%; on RET, 6%; at ROCK1 it was 13.7%. At SGK2, the inhibition at 1 µM is -34.9%.

Source of the values: patent publication US20220009920A1 (GB005, Inc., priority 2020, published 2022).
